The data set has as its target IRF4. The conditions noted are these: ASO.

“And” between values parts separate entries of the source, which are not always exact repeats. Equal entries are not always repeated. After the bases stand the sugars from the 5' end (letter, count) and the backbone: PS all phosphorothioate, else s phosphorothioate and o phosphodiester by linkage. Methylation of C is not given here. e = 2'-O-(2-methoxyethyl) (MOE); k = constrained ethyl (cEt); d = 2'-deoxy (DNA)

Take CATCACTGCAGTTCAC (sugars k3 d10 k3, PS): for the setting “SK-MEL-28, 4 µM”, the target mRNA inhibition amounted to 47%.

As to “AGTTGTAAATGAGTCG (sugars kkkdddddddddkeke, PS)”, the target mRNA inhibition (MM.1R, 0.074 µM) is 29%; the target mRNA inhibition (MM.1R, 0.222 µM) amounted to 58%; the target mRNA inhibition (MM.1R, 0.666 µM) came to 76%; the target mRNA inhibition (MM.1R, 1 µM) turned out to be 77%; the target mRNA inhibition (MM.1R, 2 µM) turned out to be 90%.

As to AGTGTCTAAAGTCCCA (sugars k3 d10 k3, PS), the target mRNA inhibition (MM.1R, 0.0625 µM) is 15%; the target mRNA inhibition (MM.1R, 0.25 µM) is 34%; the target mRNA inhibition (MM.1R, 1 µM) was 42% and 58%; the target mRNA inhibition (MM.1R, 4 µM) is 75%.

With TTAAAGAGTGGTACAC (sugars k3 d10 k3, PS), for the setting “SK-MEL-28, 4 µM”, the target mRNA inhibition was determined as 6%.

ATTGAAATGGAGCATC (sugars k3 d10 k3, PS): the target mRNA inhibition (SK-MEL-28, 4 µM) was -1%.

Consider CTGAACTGTGTAACTC (sugars k3 d10 k3, PS), for which, under “SK-MEL-28, 4 µM”, the target mRNA inhibition turned out to be 28%.

Take GAACGAGGTAAATCTT (sugars k3 d10 k3, PS): the target mRNA inhibition (SK-MEL-28, 4 µM) worked out at 56%.

Consider TTTCAGGAGCTAGTTT (sugars k3 d10 k3, PS), for which the target mRNA inhibition (MM.1R, 1 µM) is 8%.

In the case of AAGCAAGTGGAGGTCT (sugars k3 d10 k3, PS), the target mRNA inhibition (SK-MEL-28, 4 µM) was 51%.

Turning to TCATTTACTGTTACCG (sugars k3 d10 k3, PS), the target mRNA inhibition by setting is: (MM.1R, 0.0625 µM) 6%; (MM.1R, 0.25 µM) 18%; (MM.1R, 1 µM) 56% and 40%; (MM.1R, 4 µM) 82%.

CCGGGTGTGGCTGATC (sugars k3 d10 k3, PS): the target mRNA inhibition (SK-MEL-28, 4 µM) is 16%.

Turning to CTAAAGAATGAGGGTC (sugars k3 d10 k3, PS), the target mRNA inhibition (SK-MEL-28, 4 µM) was 62%.

For the sequence GAGTGTGCAGTTCCGT (sugars k3 d10 k3, PS), where the note is “SK-MEL-28, 4 µM”, the target mRNA inhibition turned out to be 67%.

As for CCTCAACCGCTGAACT (sugars k3 d10 k3, PS), the target mRNA inhibition (SK-MEL-28, 4 µM) was found to be 30%.

Regarding CTGGCTCCGCTCAACC (sugars k3 d10 k3, PS), the target mRNA inhibition (SK-MEL-28, 4 µM) stood at 52%.

GATATAAATAGCTGTT (sugars k3 d10 k3, PS): the target mRNA inhibition (SK-MEL-28, 4 µM) was 37%.

In the case of CACCAAGGTCCAGAGT (sugars k3 d10 k3, PS), the target mRNA inhibition (SK-MEL-28, 4 µM) came out at 20%.

Consider AATAAACACCCCTTCT (sugars k3 d10 k3, PS), for which, for the setting “SK-MEL-28, 4 µM”, the target mRNA inhibition stood at 21%.

Consider TTGGACAGAAGGGCAA (sugars k3 d10 k3, PS), for which the target mRNA inhibition (SK-MEL-28, 4 µM) is 29%.

As to AGGTTCCTGTCACCTG (sugars k3 d10 k3, PS), the target mRNA inhibition (MM.1R, 1 µM) is -7%.

Turning to AGTCGCGCAAGTCTAC (sugars k3 d10 k3, PS), the target mRNA inhibition (MM.1R, 1 µM) was 0%.

As to GGCAGTTCTTTCAGCA (sugars k3 d10 k3, PS), the target mRNA inhibition (SK-MEL-28, 4 µM) was determined as 37%.

For GTGACTTAATTCTGGG (sugars k3 d10 k3, PS), the target mRNA inhibition (SK-MEL-28, 4 µM) came to 51%.

For CCTCCTTTAGTGTCGC (sugars k3 d10 k3, PS), the target mRNA inhibition (SK-MEL-28, 4 µM) stood at 65%.

ACTATGGTAGGAGTGT (sugars k3 d10 k3, PS): the target mRNA inhibition (SK-MEL-28, 4 µM) came to 25%.

In the case of GAACAATCCTGTACAC (sugars k3 d10 k3, PS), the target mRNA inhibition (SK-MEL-28, 4 µM) was -5%.

As for CCACGAGGCACCGCAC (sugars k3 d10 k3, PS), where the note is “SK-MEL-28, 4 µM”, the target mRNA inhibition is -19%.

In the case of AAGGTCTGAGAGCCTT (sugars k3 d10 k3, PS), the target mRNA inhibition (SK-MEL-28, 4 µM) amounted to 17%.

With CAGCTCACCGCGCTCA (sugars k3 d10 k3, PS), the target mRNA inhibition (SK-MEL-28, 4 µM) amounted to 42%.

Consider “ACGGAAGTTTACACTG (sugars k3 d9 k3 e1, PS)”, for which the target mRNA inhibition (MM.1R, 1 µM) was determined as 29%.

On to TTGCAGAGCAATTTAC (sugars k3 d10 k3, PS), for which the target mRNA inhibition (SK-MEL-28, 4 µM) is 50%.

In the case of “GCATTTTATCATCCGA (sugars kdddddddddkekeke, PS)”, under “MM.1R, 1 µM”, the target mRNA inhibition was found to be 23%.

For ATACTGTAAGGGCTGC (sugars k3 d10 k3, PS), the target mRNA inhibition (SK-MEL-28, 4 µM) amounted to 54%.

Take AATCACGAGGTTGCCG (sugars k3 d10 k3, PS): where the note is “MM.1R, 1 µM”, the target mRNA inhibition is -6%.

With CGCCAGTGACCACGAG (sugars k3 d10 k3, PS), where the note is “SK-MEL-28, 4 µM”, the target mRNA inhibition amounted to 42%.

For GCCACATTAGCAATTA (sugars k3 d10 k3, PS), the target mRNA inhibition (SK-MEL-28, 4 µM) is 8%.

Take TCCATAGAGCCAGAGC (sugars k3 d10 k3, PS): the target mRNA inhibition (MM.1R, 1 µM) turned out to be 20%.

On to CTGCCAAGTTGAAGAC (sugars k3 d10 k3, PS), for which the target mRNA inhibition (MM.1R, 1 µM) amounted to 33%.

Regarding CTTGCCAGTGGTGGCC (sugars k4 d8 k4, PS), the target mRNA inhibition (SK-MEL-28, 4 µM) is -9%.

For TGCCAGAGGGCAAGAT (sugars k3 d10 k3, PS), for the setting “SK-MEL-28, 4 µM”, the target mRNA inhibition was found to be 2%.

As for CCATTAGAAAAGCAGG (sugars k3 d10 k3, PS), the target mRNA inhibition (SK-MEL-28, 4 µM) is 80% and 78%.

The values are drawn from the OligoGym collection.
